Measured values from patent US20230276804A1, “A PESTICIDALLY ACTIVE MIXTURE COMPRISING PYRAZOLOPYRIDINE ANTHRANILAMIDE COMPOUND, OXIDES OR SALTS THEREOF” (priority 2020, published 2023).
Where “and” joins values, the source holds several entries; their conditions need not be identical. Equal values may be shown once.

Legend:
Format in all cases: in vivo
Spodoptera litura [1] = assay: Diet incorporation method against Spodoptera litura (Example B); conditions: single compound, 1 ppm, 96 h
Method: The diet incorporation method was used, in which semi-synthetic diet was incorporated into the test solution consisting either of the single compound or respective compound combinations, when the temperature was approximately 50° C. in the bioassay containers, then stirred thoroughly for proper mixing and allowed to cool for 30 min. The solidified diet was cut into equal pieces, and then each piece was transferred into one cell of the bio-assay trays. A single starved third instar larva was released into each of these cells of the bio-assay trays and the tray was covered with a lid. The bio-assay trays were kept under laboratory conditions at a temperature of 25° C. and relative humidity of 70%. Observations on dead, moribund and live larvae were recorded 96 h after the release. Percent mortality was calculated by combining dead and moribund larvae and comparing the result with the one of the untreated control. The results are shown for the compound of formula (I-III) in Table B.

Helicoverpa armigera [2] = assay: Diet incorporation method against Helicoverpa armigera (Example A); conditions: single compound, 0.2 ppm, 96 h
Method: The diet incorporation method was used, in which semi-synthetic diet was incorporated into the test solutions consisting either of the single compounds or respective compound combinations, when the temperature was approximately 50° C. in the bio-assay containers, then stirred thoroughly for proper mixing and allowed to cool for 30 min. The solidified diet was cut into equal pieces, and then each piece was transferred into one cell of a bio-assay tray. A single starved third instar larva was released into each of these cells of the bio-assay trays and the tray was covered with a lid. The bio-assay trays were kept under laboratory conditions at a temperature of 25° C. and relative humidity of 70%. Observations on dead, moribund and live larvae were recorded 96 h after the release of the larvae. Percent mortality was calculated by combining dead and moribund larvae and comparing the result to the one of the untreated control. The results are shown for the compound of formula (I-III) in Table A.

Helicoverpa armigera [3] = assay: Leaf dip method (tomato leaves) with Bacillus thuringiensis against Helicoverpa armigera (Example D); conditions: single, 0.1 ppm, 72 h
Method: (§1) The leaf dip method was used, wherein the required quantity of the compounds were weighed and dissolved in a test solution prepared in tubes. The tubes were put on a vortex at 2000 rpm for 90 min for proper mixing and then, for the single compounds, diluted with a 0.01% Triton-X solution, for the combinations, diluted with a 0.01% Triton-X solution containing formulated Bt, to get the desired test concentrations. Tomato leaves were dipped in the solution for 10 seconds, shade dried for 20 min and then transferred to single cells of the bioassay trays. A single third instar larva was released into each cell and the tray was covered with a lid. The bio-assay trays were kept under laboratory conditions at a temperature of 25° C. and relative humidity of 70%. Observations on dead, moribund and live larvae were recorded at 72 h after the release. Percent mortality was calculated by combining dead and moribund larvae and comparing the result to the one of the untreated control. The results have been described for compound of formula (I-III) in Table D.

Spodoptera litura [4] = assay: Leaf dip method (tomato leaves) with Bacillus thuringiensis against Spodoptera litura (Example E); conditions: single, 0.1 ppm, 72 h
Method: as §1, with “test concentration.” for “test concentrations.”, “the results” for “the result”, “Table E.” for “Table D.”

Substance: 6-(3-bromo-1-(3-chloropyridin-2-yl)-1H-pyrazole-5-carboxamido)-N-isopropyl-5-methylpyrazolo[1,5-a]pyridine-7-carboxamide [Compound (I-III)]
- Observed Efficacy (%) (Spodoptera litura [1]): 12.5% and 25%
- Observed Efficacy (%) (Helicoverpa armigera [2]): 12.5%
- Observed Efficacy (%) (Helicoverpa armigera [3]): 12.5%
- Observed Efficacy (%) (Spodoptera litura [4]): 0%
